Laboratory results published in patent publication US7419969B2 (Bristol-Myers Squibb Company, priority 2004, dated 2008).

Target: T1, HIV-integrase (Human immunodeficiency virus type 1 group M subtype B, UniProt P04585)
T1 construct: Recombinant integrase (0.26 ng) was incubated with the beads
Experiment: in-vitro activity against HIV-integrase (HIV Integrase Inhibition, SPA bead assay)
Format: biochemical
Details: Table 1; recombinant integrase, activity class
Procedure, shortened: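 Recombinant integrase (0.26 ng) pre-bound for 90 min at 37 °C to biotinylated substrate DNA on streptavidin SPA beads, then washed. Inhibitors added with 33P-labelled target DNA; reaction stopped with 10 mM EDTA. Scintillation CPM taken as integration signal.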

`CNC(=O)c1cc(F)ccc1CNC(=O)c1nc2n(c(=O)c1O)CCOC21CCC1` [Example 91, N-[[4-fluoro-2-[(methylamino)carbonyl]phenyl]methyl]-6′,7′-dihydro-3′-hydroxy-4′-oxo-spiro[cyclobutane-1,9′(4′H)-pyrimido[2,1-c][1,4]oxazine]-2′-carboxamide] and `O=C(NCc1ccc(F)cc1)c1nc2n(c(=O)c1O)CCOC21CCC1` [Example 52, N-[(4-fluorophenyl)methyl]-6′,7′-dihydro-3′-hydroxy-4′-oxo-spiro[cyclobutane-1,9′(4′H)-pyrimido[2,1-c][1,4]oxazine]-2′-carboxamide] fall in the same range of IC50: 1 to 10 nM for the first, 1 to 10 nM for the second.

First: Cc1ccc(CNC(=O)c2nc3n(c(=O)c2O)CCCC32CCC2)cc1 [Example 63, N-[(4-methylphenyl)methyl]-7′,8′-dihydro-3′-hydroxy-4′-oxo-spiro[cyclobutane-1,9′(6′H)-[4H]pyrido[1,2-α]pyrimidine]-2′-carboxamide]
Second: Cc1ccc(CNC(=O)c2nc3n(c(=O)c2O)CCCC32CCC2)cc1C [Example 69, N-[(3,4-dimethylphenyl)methyl]-7′,8′-dihydro-3′-hydroxy-4′-oxo-spiro[cyclobutane-1,9′(6′H)-[4H]pyrido[1,2-α]pyrimidine]-2′-carboxamide]
The IC50 of the first is higher: 10 to 100 nM for the first, 1 to 10 nM for the second. The second is the more potent here.

First: O=C(NCc1ccccc1N1CCCCS1(=O)=O)c1nc2n(c(=O)c1O)CCOC21CCC1 [Example 56, N-[[2-(tetrahydro-1,1-dioxido-2H-1,2-thiazin-2-yl)phenyl]methyl]-6′,7′-dihydro-3′-hydroxy-4′-oxo-spiro[cyclobutane-1,9′(4′H)-pyrimido[2,1-c][1,4]oxazine]-2′-carboxamide]
Second: O=C(NCc1ccc(F)cc1N1CCCCS1(=O)=O)c1nc2n(c(=O)c1O)CCOC21CCOCC1 [Example 42, N-[[4-fluoro-2-(tetrahydro-1,1-dioxido-2H-1,2-thiazin-2-yl)phenyl]methyl]-2,3,5,6,6′,7′-hexahydro-3′-hydroxy-4′-oxo-spiro[4H-pyran-4,9′(4′H)-pyrimido[2,1-c][1,4]oxazine]-2′-carboxamide]
The IC50 of the first is higher: 10 to 100 nM for the first, 1 to 10 nM for the second. The second is the more potent here.

`Cc1cc(CNC(=O)c2nc3n(c(=O)c2O)CCOC32CCOCC2)ccc1F` [Example 45, N-[(4-fluoro-3-methylphenyl)methyl]-2,3,5,6,6′,7′-hexahydro-3′-hydroxy-4′-oxo-spiro[4H-pyran-4,9′(4′H)-pyrimido[2,1-c][1,4]oxazine]-2′-carboxamide] and `Cc1cc(CNC(=O)c2nc3n(c(=O)c2O)CCOC32CCCC2)ccc1F` [Example 16, N-[(4-fluoro-3-methylphenyl)methyl]-6′,7′-dihydro-3′-hydroxy-4′-oxo-spiro[cyclopentane-1,9′(4′H)-pyrimido[2,1-c][1,4]oxazine]-2′-carboxamide] fall in the same range of IC50: 1 to 10 nM for the first, 1 to 10 nM for the second.

Compared with `O=C(NCc1ccccc1F)c1nc2n(c(=O)c1O)CCCC21CCC1` [Example 68, N-[(2-fluorophenyl)methyl]-7′,8′-dihydro-3′-hydroxy-4′-oxo-spiro[cyclobutane-1,9′(6′H)-[4H]pyrido[1,2-α]pyrimidine]-2′-carboxamide], `O=C(NCc1cc(Cl)ccc1Cl)c1nc2n(c(=O)c1O)CCCC21CCC1` [Example 76, N-[(2,5-dichlorophenyl)methyl]-7′,8′-dihydro-3′-hydroxy-4′-oxo-spiro[cyclobutane-1,9′(6′H)-[4H]pyrido[1,2-α]pyrimidine]-2′-carboxamide] is lower in IC50: 10 to 100 nM for the first, 1 to 10 nM for the second. The second is the more potent here.

`O=C(NCc1ccc(F)cc1-n1cncn1)c1nc2n(c(=O)c1O)CCC21CCCC1` [Example 87, N-[[4-fluoro-2-(1H-1,2,4-triazol-1-yl)phenyl]methyl]-6′,7′-dihydro-3′-hydroxy-4′-oxo-spiro[cyclopentane-1,8′(4′H)-pyrrolo[1,2-α]pyrimidine]-2′-carboxamide] and `O=C(NCc1cccc(F)c1-n1cncn1)c1nc2n(c(=O)c1O)CCCC21CCCC1` [Example 12, N-[[3-fluoro-2-(1H-1,2,4-triazol-1-yl)phenyl]methyl]-7′,8′-dihydro-3′-hydroxy-4′-oxo-spiro[cyclopentane-1,9′(6′H)-[4H]pyrido[1,2-α]pyrimidine]-2′-carboxamide] fall in the same range of IC50: 1 to 10 nM for the first, 1 to 10 nM for the second.

`CS(=O)(=O)c1cc(F)ccc1CNC(=O)c1nc2n(c(=O)c1O)CCOC21CCOCC1` [Example 44, N-[[4-fluoro-2-(methylsulfonyl)phenyl]methyl]-2,3,5,6,6′,7′-hexahydro-3′-hydroxy-4′-oxo-spiro[4H-pyran-4,9′(4′H)-pyrimido[2,1-c][1,4]oxazine]-2′-carboxamide] and `O=C(NCc1ccc(F)cc1)c1nc2n(c(=O)c1O)CCOC21CCOC1` (stereo not drawn) [Example 36, N-[(4-fluorophenyl)methyl]-4,5,6′,7′-tetrahydro-3′-hydroxy-4′-oxo-spiro[furan-3(2H),9′(4′H)-pyrimido[2,1-c][1,4]oxazine]-2′-carboxamide] fall in the same range of IC50: 1 to 10 nM for the first, 1 to 10 nM for the second.

First: O=C(NCc1ccc(Cl)c(Cl)c1)c1nc2n(c(=O)c1O)CCCC21CCC1 [Example 70, N-[(3,4-dichlorophenyl)methyl]-7′,8′-dihydro-3′-hydroxy-4′-oxo-spiro[cyclobutane-1,9′(6′H)-[4H]pyrido[1,2-α]pyrimidine]-2′-carboxamide]
Second: Cc1ccc(CNC(=O)c2nc3n(c(=O)c2O)CCOC32CCCC2)cc1 [Example 19, 6′,7′-dihydro-3′-hydroxy-N-[(4-methylphenyl)methyl]-4′-oxo-spiro[cyclopentane-1,9′(4′H)-pyrimido[2,1-c][1,4]oxazine]-2′-carboxamide]
The IC50 of the first is lower: 1 to 10 nM for the first, 10 to 100 nM for the second.

Same assay, conditions: Table 1a; recombinant integrase, activity class

Compared with `O=C(NCc1ccccc1N1CCOC1=O)c1nc2n(c(=O)c1O)CCOC21CCC1` [Example 126, Spiro[cyclobutane-1,9′(4′H)-pyrimido[2,1-c][1,4]oxazine]-2′-carboxamide, 6′,7′-dihydro-3′-hydroxy-4′-oxo-N-[[2-(2-oxo-3-oxazolidinyl)phenyl]methyl]-], `Cc1nc(C)n(-c2cc(F)ccc2CNC(=O)c2nc3n(c(=O)c2O)CCCOC32CCC2)n1` [Example 128, Spiro[cyclobutane-1,10′(4′H)-[6H]pyrimido[2,1-c][1,4]oxazepine]-2′-carboxamide, N-[[2-(3,5-dimethyl-1H-1,2,4-triazol-1-yl)-4-fluorophenyl]methyl]-7′,8′-dihydro-3′-hydroxy-4′-oxo-] is higher in IC50: 1 to 10 nM for the first, 10 to 100 nM for the second.

`CN1CCn2c(nc(C(=O)NCc3ccc(F)cc3)c(O)c2=O)C12CCCC2` [Example 92, Spiro[cyclopentane-1,9′(6′H)-[4H]pyrazino[1,2-a]pyrimidine]-2′-carboxamide, N-[(4-fluorophenyl)methyl]-7′,8′-dihydro-3′-hydroxy-8′-methyl-4′-oxo-] and `O=C(NCc1ccc(F)cc1)c1nc2n(c(=O)c1O)CCNC21CCC1` [Example 132, Spiro[cyclobutane-1,9′(6′H)-[4H]pyrazino[1,2-a]pyrimidine]-2′-carboxamide, N-[(4-fluorophenyl)methyl]-7′,8′-dihydro-3′-hydroxy-4′-oxo-] fall in the same range of IC50: 1 to 10 nM for the first, 1 to 10 nM for the second.

`O=C(NCc1ccc(F)cc1)c1nc2n(c(=O)c1O)CCOC21COC1` [Example 109, Spiro[oxetane-3,9′(4′H)-pyrimido[2,1-c][1,4]oxazine]-2′-carboxamide, N-[(4-fluorophenyl)methyl]-6′,7′-dihydro-3′-hydroxy-4′-oxo-] gave an IC50 of 1 to 10 nM.
